Laboratory results taken from US20070213301A1 (ACHILLION PHARMACEUTICALS, INC., priority 2006, published 2007).

System: HCV replicon
Assay: HCV replicon replication assay (NPTII ELISA)
Format: cell-based, Hepatitis C virus (Huh-7 cells)
Conditions: Hepatitis C virus, Huh-7, 72 h, inhibition of HCV replicon replication in Huh-7 HCV replicon-containing cells, three days incubation, NPT level by ELISA; read-out: EC50
Procedure, shortened: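 Huh-7 cells carrying a Bartenschlager NPTII (neo) HCV replicon, treated 3 days at 37 °C with compound, generally 6 concentrations from 10 to 0.03 micromolar, in equal DMSO across wells. NPTII level, proportional to replication, read by capture ELISA on methanol:acetone-fixed cells; interferon alpha positive control; toxicity scored visually or by MTS.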

Row | Compound | EC50 [nM]
1 | CCCCCOc1ccc(N(C(=O)C(N)=O)c2nc(-c3cccnc3)cs2)cc1C(F)(F)F [Compound 153, N1-(4-(pentyloxy)-3-(trifluoromethyl)phenyl)-N1-(4-(pyridin-3-yl)thiazol-2-yl)oxalamide] | < 1000
2 | CC(C)COc1ccc(N(C(N)=O)c2nc(-c3ccc(F)c(F)c3)cs2)cc1C(F)(F)F [Compound 126, 1-(4-(3,4-difluorophenyl)thiazol-2-yl)-1-(4-isobutoxy-3-(trifluoromethyl)phenyl)urea] | < 1000
3 | CCCCCCCCc1ccc(N(C(=O)CN(C)C)c2nc(-c3cccnc3)c(F)s2)cc1C(F)(F)F [Compound 170, 2-(dimethylamino)-N-(5-fluoro-4-(pyridin-3-yl)thiazol-2-yl)-N-(4-octyl-3-(trifluoromethyl)phenyl)acetamide] | < 1000
4 | CCCCCCc1ccc(N(C(N)=O)c2nc(-c3cccnc3)c(F)s2)cc1C(F)(F)F [Compound 155, 1-(5-fluoro-4-(pyridin-3-yl)thiazol-2-yl)-1-(4-hexyl-3-(trifluoromethyl)phenyl)urea] | < 1000
5 | CCCCCOc1ccc(N(C(=O)C(=O)OC)c2nc(-c3ccc4[nH]c(=O)oc4c3)cs2)cc1C(F)(F)F [Compound 100, methyl 2-oxo-2-((4-(2-oxo-2,3-dihydrobenzo[d]oxazol-6-yl)thiazol-2-yl)(4-(pentyloxy)-3-(trifluoromethyl)phenyl)amino)acetate] | < 1000
6 | CCCCCOc1ccc(N(C(=O)OC)c2nc(-c3ccc(F)cc3)cs2)cc1C(F)(F)F [Compound 47, methyl 4-(4-fluorophenyl)thiazol-2-yl(4-(pentyloxy)-3-(trifluoromethyl)phenyl)carbamate] | < 1000
7 | CCCCCOc1ccc(N(C(=O)OC)c2nc(-c3ccc(F)c(F)c3)cs2)cc1C(F)(F)F [Compound 56, methyl 4-(3,4-difluorophenyl)thiazol-2-yl(4-(pentyloxy)-3-(trifluoromethyl)phenyl)carbamate] | < 1000
8 | CCCCCOc1ccc(N(C(=O)CN(C)C)c2nc(-c3cccnc3)cs2)cc1C(F)(F)F [Compound 41, 2-(dimethylamino)-N-(4-(pentyloxy)-3-(trifluoromethyl)phenyl)-N-(4-(pyridin-3-yl)thiazol-2-yl)acetamide] | < 1000
9 | CCCCCCCCOc1ccc(N(C(C)=O)c2nc(-c3cccnc3)c(F)s2)cc1C(F)(F)F [Compound 177, N-(5-fluoro-4-(pyridin-3-yl)thiazol-2-yl)-N-(4-(octyloxy)-3-(trifluoromethyl)phenyl)acetamide] | < 1000
10 | CCCCCCCCc1ccc(N(C(=O)OCCOP(=O)(O)O)c2nc(-c3cccnc3)c(F)s2)cc1C(F)(F)F [Compound 183, 2-(phosphonooxy)ethyl 5-fluoro-4-(pyridin-3-yl)thiazol-2-yl(4-octyl-3-(trifluoromethyl)phenyl)carbamate] | < 1000
11 | C/C=N/N(c1ccc(OCCCCCCCC)c(C(F)(F)F)c1)c1nc(-c2cccnc2)c(F)s1 [Compound 191, (E)-2-(2-ethylidene-1-(4-(octyloxy)-3-(trifluoromethyl)phenyl)hydrazinyl)-5-fluoro-4-(pyridin-3-yl)thiazolo] | 1000 to 10000
12 | CCCCCOc1ccc(N(CC(=O)N(CC)CC)c2nc(-c3cccnc3)cs2)cc1C(F)(F)F [Compound 9, N,N-diethyl-2-((4-(pentyloxy)-3-(trifluoromethyl)phenyl)(4-(pyridin-3-yl)thiazol-2-yl)amino)acetamide] | > 10000
13 | CCCCCOc1ccc(N(C)c2nc(C(=O)Nc3ccc(Cl)cc3)cs2)cc1C(F)(F)F [Compound 4, N-(4-chlorophenyl)-2-(methyl(4-(pentyloxy)-3-(trifluoromethyl)phenyl)amino)thiazole-4-carboxamide] | 1000 to 10000
14 | Cc1ccc(-c2csc(N(C(N)=O)c3ccc(OCC(C)C)c(C(F)(F)F)c3)n2)cn1 [Compound 147, 1-(4-isobutoxy-3-(trifluoromethyl)phenyl)-1-(4-(6-methylpyridin-3-yl)thiazol-2-yl)urea] | < 1000
15 | CCCCCN(C)c1ccc(N(C(N)=O)c2nc(-c3ccc(C)nc3)cs2)cc1C(F)(F)F [Compound 139, 1-(4-(methyl(pentyl)amino)-3-(trifluoromethyl)phenyl)-1-(4-(6-methylpyridin-3-yl)thiazol-2-yl)urea] | < 1000
16 | CCCCCOc1ccc(N(C(C)=O)c2nc(CN(C)C)cs2)cc1C(F)(F)F [Compound 20, N-(4-((dimethylamino)methyl)thiazol-2-yl)-N-(4-(pentyloxy)-3-(trifluoromethyl)phenyl)acetamide] | 1000 to 10000
17 | CCCCOc1ccc(N(C(N)=O)c2nc(-c3ccc4c(c3)NC(=O)CO4)cs2)cc1C(F)(F)F [Compound 134, 1-(4-butoxy-3-(trifluoromethyl)phenyl)-1-(4-(3-oxo-3,4-dihydro-2H-benzo[b][1,4]oxazin-6-yl)thiazol-2-yl)urea] | 1000 to 10000
18 | CCCCCCCOc1ccc(N(C(=O)c2cc(C)on2)c2nc(-c3ccc(Cl)s3)cs2)cc1 [Compound 91, N-(4-(5-chlorothiophen-2-yl)thiazol-2-yl)-N-(4-(heptyloxy)phenyl)-5-methylisoxazole-3-carboxamide] | < 1000

Row | Compound | EC50 [nM]
19 | CCCCCCOc1ccc(N(C(N)=O)c2nc(-c3ccc(F)c(F)c3)cs2)cc1 [Compound 124, 1-(4-(3,4-difluorophenyl)thiazol-2-yl)-1-(4-(hexyloxy)phenyl)urea] | < 1000
20 | CCCCCCCCOc1ccc(N(C(=O)OCCOCCOCCOCCOC)c2nc(-c3cccnc3)c(F)s2)cc1C(F)(F)F [Compound 171, 2,5,8,11-tetraoxatridecan-13-yl 5-fluoro-4-(pyridin-3-yl)thiazol-2-yl(4-(octyloxy)-3-(trifluoromethyl)phenyl)carbamate] | < 1000
21 | CCCCCOc1ccc(N(C(C)=O)c2nc(-c3ccc(CN(C)C)nc3)cs2)cc1C(F)(F)F [Compound 16, N-(4-(6-((dimethylamino)methyl)pyridin-3-yl)thiazol-2-yl)-N-(4-(pentyloxy)-3-(trifluoromethyl)phenyl)acetamide] | 1000 to 10000
22 | CCCCCCCCc1ccc(N(C(=O)OCOP(=O)(O)O)c2nc(-c3cccnc3)c(F)s2)cc1C(F)(F)F [Compound 187, phosphonooxymethyl 5-fluoro-4-(pyridin-3-yl)thiazol-2-yl(4-octyl-3-(trifluoromethyl)phenyl)carbamate] | < 1000
23 | CCCCCN(C)c1ccc(N(C(=O)COC(C)=O)c2nc(-c3cccnc3)cs2)cc1C(F)(F)F [Compound 51, 2-((4-(methyl(pentyl)amino)-3-(trifluoromethyl)phenyl)(4-(pyridin-3-yl)thiazol-2-yl)amino)-2-oxoethyl acetate] | < 1000
24 | CCCCOc1ccc(N(C(N)=O)c2nc(-c3ccccn3)cs2)cc1C(F)(F)F [Compound 103, 1-(4-butoxy-3-(trifluoromethyl)phenyl)-1-(4-(pyridin-2-yl)thiazol-2-yl)urea] | < 1000
25 | CCCCCOc1ccc(N(C(=O)C(C)C)c2nc(CN(C)C)cs2)cc1C(F)(F)F [Compound 21, N-(4-((dimethylamino)methyl)thiazol-2-yl)-N-(4-(pentyloxy)-3-(trifluoromethyl)phenyl)isobutyramide] | 1000 to 10000
26 | CCCCOc1ccc(N(C(N)=O)c2nc(-c3ccc(F)cc3)cs2)cc1C(F)(F)F [Compound 135, 1-(4-butoxy-3-(trifluoromethyl)phenyl)-1-(4-(4-fluorophenyl)thiazol-2-yl)urea] | < 1000
27 | COc1ccc(N(C(N)=O)c2nc(-c3ccc(F)cc3)cs2)cc1C(F)(F)F [Compound 85, 1-(4-(4-fluorophenyl)thiazol-2-yl)-1-(4-methoxy-3-(trifluoromethyl)phenyl)urea] | < 1000
28 | CCCCCCCC(F)(F)c1ccc(N(C(C)=O)c2nc(-c3cccnc3)cs2)cc1 [Compound 154, N-(4-(1,1-difluorooctyl)phenyl)-N-(4-(pyridin-3-yl)thiazol-2-yl)acetamide] | < 1000
29 | CCCCCOc1ccc(N(C(=O)COC(C)=O)c2nc(-c3ccc(F)c(F)c3)cs2)cc1C(F)(F)F [Compound 54, 2-((4-(3,4-difluorophenyl)thiazol-2-yl)(4-(pentyloxy)-3-(trifluoromethyl)phenyl)amino)-2-oxoethyl acetate] | < 1000
30 | CCCCCCCCOc1ccc(N(C(=O)OC)c2nc(-c3ccc(F)c(F)c3)cs2)cc1 [Compound 59, methyl 4-(3,4-difluorophenyl)thiazol-2-yl(4-(octyloxy)phenyl)carbamate] | 1000 to 10000
31 | CCCCCCCCOc1ccc(N(C(=O)CO)c2nc(-c3cccnc3)c(F)s2)cc1C(F)(F)F [Compound 169, N-(5-fluoro-4-(pyridin-3-yl)thiazol-2-yl)-2-hydroxy-N-(4-(octyloxy)-3-(trifluoromethyl)phenyl)acetamide] | < 1000
32 | CCCCCOc1ccc(N(C(=O)C(C)C)c2nc(-c3cccnc3)cs2)cc1F [Compound 25, N-(3-fluoro-4-(pentyloxy)phenyl)-N-(4-(pyridin-3-yl)thiazol-2-yl)isobutyramide] | < 1000
33 | NC(=O)N(c1ccc(F)c(C(F)(F)F)c1)c1nc(-c2cccnc2)cs1 [Compound 83, 1-(4-fluoro-3-(trifluoromethyl)phenyl)-1-(4-(pyridin-3-yl)thiazol-2-yl)urea] | < 1000
34 | CCCCCCCCOc1ccc(N(C(=O)c2cccnc2)c2nc(-c3nc4ccccc4s3)cs2)cc1 [Compound 101, N-(4-(benzo[d]thiazol-2-yl)thiazol-2-yl)-N-(4-(octyloxy)phenyl)nicotinamide] | 1000 to 10000
35 | CCCCCOc1ccc(N(C)c2nc(-c3ccc(CN4CCOCC4)nc3)cs2)cc1C(F)(F)F [Compound 8, N-methyl-4-(6-(morpholinomethyl)pyridin-3-yl)-N-(4-(pentyloxy)-3-(trifluoromethyl)phenyl)thiazol-2-amine] | 1000 to 10000
